Target: T1, cedar pollen allergen (Cry j1) (Cryptomeria japonica, UniProt P18632)
T1 sequence (P18632 22-374): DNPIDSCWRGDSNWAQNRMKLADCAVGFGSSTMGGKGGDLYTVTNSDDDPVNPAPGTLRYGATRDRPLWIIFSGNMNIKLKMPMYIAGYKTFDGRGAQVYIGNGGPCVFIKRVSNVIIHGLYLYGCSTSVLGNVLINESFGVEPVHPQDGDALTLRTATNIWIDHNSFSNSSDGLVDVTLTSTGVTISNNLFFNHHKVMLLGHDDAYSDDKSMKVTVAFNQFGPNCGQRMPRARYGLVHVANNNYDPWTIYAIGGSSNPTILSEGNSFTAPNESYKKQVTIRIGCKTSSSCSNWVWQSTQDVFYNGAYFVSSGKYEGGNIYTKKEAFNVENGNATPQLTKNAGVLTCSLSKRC
Experiment: Function test of the sample to cedar pollen allergen (Cry j1): allergen adsorption, supernatant measured by sandwich ELISA
Format: binding
Method: A 1% (by weight/volume) sample solution was prepared from each of the compounds synthesized in Examples 1 to 5, an allergen (Cry j1) dissolved into a phosphate buffer solution was added into the sample solution so as to give 100 ng/mL of the concentration thereof, and then, they were mixed by using a vortex; thereafter, reaction was carried out with shaking the mixture at 4° C. The solution was recovered at the respective predetermined intervals ([…]); and a supernatant thereof after centrifugal separation was analyzed as to the allergen concentration (A) by using a sandwich ELISA method (Enzyme-Linked Immunosorbent Assay). […] Reduction rate (%)=(B−A)/B×100
Specific procedure of the sandwich ELISA method will now be described. Anti-Cry j1 antibody is immobilized in each well of a microplate; and after cleaning it, post coating thereof is conducted. After further cleaning, a sample solution or a standard allergen solution is added thereinto to carry out a primary reaction. After cleaning thereof, an anti-Cry j1 biotin-labeled antibody is added thereinto to carry out a secondary reaction. After further cleaning thereof, an enzyme reagent streptavidin HRP is added thereinto; and after cleaning thereof, an o-phenylenedimaine substrate is added thereinto to carry out a chromogenic reaction. After termination of the reaction by adding dilute sulfuric acid, absorbance at the wavelength of 490 nm is measured by using a microplate reader. From a calibration curve predetermined by using the standard allergen solution, allergen concentration in each sample solution is obtained.

[1] = 1% (w/v) sample solution, 100 ng/mL Cry j1, 4° C., at 5 minutes

Q: Which allergen reduction rate (conditions similar to Test Example 1, after 60 minutes) does the source give for C60(OH)44.8H2O [reference compound] here?
A: 6.2%

Q: C60Cl5 (OH)15.5H2O [Example 4] was tested. Which allergen reduction rate [1] did it give?
A: 90%

Q: With C60Cl15(OH)15.9H2O [Example 3] as the substance, how does the allergen reduction rate [1] read?
A: 90%
